Measured values published in patent publication US8614168B2, “Use of azoles for increasing the abiotic stress resistance of plants or plant parts” (Monheim, priority 2008, dated 2013).

What was measured:
ZEAMX: corn (Zea mais) = assay: Dry stress test on potted plants, spray application, corn; type: in vivo; conditions: individual substance
Description: (§1) Seeds of monocotyledonous and dicotyledonous crop plants are placed in sandy loam in wood-fiber pots, covered with soil and cultivated in a greenhouse under good growth conditions. The test plants are treated in the early leaf stage (BBCH10-BBCH13, BBCH-Monografie der Biologische Bundesanstalt für Land and Forstwirtschaft, 2nd edition, 2001), i.e. 2-3 weeks after sowing according to the species. To ensure uniform water supply before commencement of stress, the potted plants were supplied with the maximum amount of water immediately beforehand by dam irrigation and transferred in plastic inserts in order to prevent subsequent, excessively rapid drying. The inventive compounds, formulated in the form of wettable powders (WP), are then sprayed onto the green parts of the plants as an aqueous suspension at an equivalent water application rate of 600 l/ha with addition of 0.2% wetting agent (agrotin). Substance application is followed immediately by stress treatment of the plants (cold or dry stress). Dry stress is induced by slow drying under the following conditions: • “day”: 14 hours with illumination at 26° C. • “night”: 10 hours without illumination at 18° C. The cold stress phase is ended after exactly 14 days. The duration of the dry stress phase is guided mainly by the state of the untreated, stressed control plants and thus varies from crop to crop. It is ended (by re-irrigating) as soon as irreversible damage is observed on the untreated, stressed control plants. In the case of dicotyledonous crops, for example oilseed rape and soya, the duration of the dry stress phase is between 4 and 6 days, in the case of monocotyledonous crops, for example wheat, barley or corn, between 6 and 10 days. The end of the stress phase is followed by a 7-day recovery phase, during which the plants are once again kept under good growth conditions in a greenhouse. In order to rule out any influence of the effects observed by any fungicidal action of the test compounds, it is additionally ensured that the tests proceed without fungal infection and without infection pressure. After the recovery phase has ended, the intensities of damage are rated visually compared to untreated, unstressed controls of the same age (in the case of dry stress) or the same growth stage (in the case of cold stress). The intensity of damage is first assessed as a percentage (100%=plants have died, 0%=like control plants). These values are then used to calculate the efficacy of the test compounds (=percentage reduction in the intensity of damage as a result of substance application) by the following formula: [formula] EF: efficacy (%) DVus: damage value of the untreated, stressed control DVts: damage value of the plants treated with test compound The table below lists mean values in each case from three results of the same test.

[1] = tested on: BRSNS: oilseed rape (Brassica napus); assay: Dry stress test on potted plants, spray application, oilseed rape; type: in vivo; conditions: individual substance
Description: as §1

[2] = tested on: HORVS barley (Hordeum vulgare); assay: Dry stress test on potted plants, spray application, barley; type: in vivo; conditions: 100 g/ha, individual substance
Description: Seeds of monocotyledonous and dicotyledonous crop plants are placed in sandy loam in wood-fiber pots, covered with soil and cultivated in a greenhouse under good growth conditions. The test plants are treated in the early leaf stage (BBCH10-BBCH13, BBCH-Monografie der Biologische Bundesanstalt für Land and Forstwirtschaft, 2nd edition, 2001), i.e. 2-3 weeks after sowing according to the species. To ensure uniform water supply before commencement of stress, the potted plants were supplied with the maximum amount of water immediately beforehand by dam irrigation and transferred in plastic inserts in order to prevent subsequent, excessively rapid drying. The inventive compounds, formulated in the form of wettable powders (WP), are then sprayed onto the green parts of the plants as an aqueous suspension at an equivalent water application rate of 600 l/ha with addition of 0.2% wetting agent (agrotin). Substance application is followed immediately by stress treatment of the plants (cold or dry stress). Dry stress is induced by slow drying under the following conditions: • “day”: 14 hours with illumination at 26° C. • “night”: 10 hours without illumination at 18° C. The cold stress phase is ended after exactly 14 days. […] The intensity of damage is first assessed as a percentage (100%=plants have died, 0%=like control plants). […]

[3] = tested on: crop plants, for example oilseed rape; assay: Stunting: mean plant height after azole application; type: in vivo; conditions: dosage 250 g/ha, comparative 11.7 cm
Text: In the case of application of the inventive azoles, this stunting occurs to a lower or non-undesirable degree: […]

ABA 8′-hydroxylase = conditions: studies to date (Kitahata et al., 2005; Saito et al., 2006); cited from earlier work

Row | SMILES | efficacy (percentage reduction in the intensity of damage) (ZEAMX: corn (Zea mais); 100 g/ha) [%] | efficacy (percentage reduction in the intensity of damage) ([1]; 100 g/ha) [%] | efficacy (percentage reduction in the intensity of damage) [2] [%] | efficacy (percentage reduction in the intensity of damage) (ZEAMX: corn (Zea mais); 250 g/ha) [%] | efficacy (percentage reduction in the intensity of damage) ([1]; 250 g/ha) [%] | Mean plant height (cm) [3] [cm] | inhibiting action on abscisic acid catabolism or ABA 8′-hydroxylase (ABA 8′-hydroxylase)
1 | Fc1ccc([C@]2(Cn3cncn3)O[C@H]2c2ccccc2Cl)cc1 (racemic) [epoxiconazole] | 11 | 35 | 17 |  |  |  | 
2 | CC(C1CC1)C(O)(Cn1cncn1)c1ccc(Cl)cc1 (stereo not shown) [cyproconazole] | 40 |  |  | 37 | 42 |  | 
3 | CC1(C)CCC(Cc2ccc(Cl)cc2)C1(O)Cn1cncn1 (stereo not shown) [metconazole] |  | 50 |  |  |  |  | 
4 | OC(Cc1ccccc1Cl)(Cn1nc[nH]c1=S)C1(Cl)CC1 (stereo not shown) [prothioconazole] | 12 | 12 | 11 |  |  | 10.2 | 
5 | CC(C)(C)C(O)(CCc1ccc(Cl)cc1)Cn1cncn1 (stereo not shown) [tebuconazole] |  | 27 |  | 30 | 42 | 10.2 | only slight inhibiting action, if any
